Assay results as given in patent EP0076452A2, “Cephalosporin derivatives, process for their preparation and pharmaceutical compositions containing them” (priority 1981, dated 1983).
≈ marks a conversion by molar mass, not a printed value. Like-named read-outs stand apart in the source and are kept apart here.

How the values were obtained:
Escherichia coli 205 [1] = experiment: Chemotherapeutic efficacy in vivo against systemic infection in mice (ED50); set-up: species or system Maus; settings: for ED50: Escherichia coli, 205, sc, read-out: ED50 Escherichia coli 205
Description: (§1) B. Die chemotherapeutische Wirksamkeit in vivo gegen systemische Infektionen in weiblicher SPF, MF2 Mäusen wurde nach der Methode von Zak, 0. et al., 1979, Drugs Exptl. Clin. Res. 5, 45-59, ermittelt. Die gefundenen ED50-Werte in Milligramm Substanz pro Kilogramm Maus (mg/kg) für eine Anzahl von Mikroorganismen werden für die subcutan (s.c.) applizierten Testverbindungen in der Tabelle 2 angegeben.

[2] = system: Staphylococcus aureus 10 B; experiment: as above; set-up: species or system Maus; settings: for ED50 Staphylococcus aureus 10 B: s.c.; for ED50: Staphylococcus aureus, 10B, sc, read-out: ED50 Staphylococcus aureus 10 B
Description: as §1

[3] = system: Streptococcus pyogenes Aronson; experiment: Antibiotic activity in vitro, agar dilution method in DST agar (MIC); assay type: cell-based; settings: for MIC: Streptococcus pyogenes, read-out: MIC Streptococcus pyogenes Aronson
Description: (§2) A. Die antibiotische Aktivität der Testverbindungen in vitro wurde durch die Agarverdünnungsmethode nach Ericsson, H.M., und Sherris, S.C., 1971, Acta Path. Microb. Scand. Section B, Suppl. No. 217, Bd. 1-90, in DST Agar ermittelt. Die gefundenen, das Wachstum der Testorganismen noch hemmenden Minimalkonzentrationen (MIC = minimum inhibiting concentrations) werden in Mikrogramm pro Mililiter ([…]) für die geprüften Verbindungen in der Tabelle 1 angegeben.

Escherichia coli 205 [4] = experiment: as above; assay type: cell-based; settings: for MIC Escherichia coli 205: in vitro
Description: as §2

Proteus rettgeri 856 = experiment: as above; assay type: cell-based; settings: for MIC Proteus rettgeri 856: in vitro
Description: as §2

[5] = s.c., systemic infection, female SPF MF2 mice
[6] = systemic infection, female SPF MF2 mice
[7] = in vitro, agar dilution, DST Agar
[8] = Escherichia coli, 205, in vitro, agar dilution, DST Agar, read-out: MIC Escherichia coli 205
[9] = Providencia rettgeri, 856, in vitro, agar dilution, DST Agar, read-out: MIC Proteus rettgeri 856
[10] = agar dilution, DST Agar, listed as 8

Row | SMILES | MIC (Escherichia coli 205 [4]; [8]) [µg/mL] | MIC [3, 7] [µg/mL] | MIC (Proteus rettgeri 856; [9]) [µg/mL] | ED50 (Escherichia coli 205 [1]; [5]) [mg/kg] | ED50 [2, 6] [mg/kg] | other results
1 | CO/N=C(\C(=O)N[C@@H]1C(=O)N2C(C(=O)OCOC(=O)C(C)(C)C)=C(COC(N)=O)CS[C@H]12)c1coc(N)n1 [Beispiel 18, 3-Carbamoyloxymethyl-7ß-[2-(2-amino-4-oxazolyl)-2-Z-methoxyimino-acetylamino]-3-cephem-4-carbonsäure-pivaloyloxymethylester] | – | – | – | – | – | ED50 Escherichia coli 205 (Escherichia coli 205 [1]; [5]): >30 mg/kg; ED50 Staphylococcus aureus 10 B [2, 6]: 8 mg/kg; MIC Streptococcus pyogenes Aronson [3, 7]: 0,02 µg/ml; MIC Escherichia coli 205 (Escherichia coli 205 [4]; agar dilution, DST Agar): 0,1 µg/ml; MIC Proteus rettgeri 856 (Proteus rettgeri 856; agar dilution, DST Agar): 0,01 µg/ml
2 | CO/N=C(\C(=O)N[C@@H]1C(=O)N2C(C(=O)O)=C(CSc3nnnn3C)CS[C@H]12)c1coc(N)n1 [Testverbindung 1] | 0.1 (≈ 0.202 µM) | – | – | 1.5 | 12 | –
3 | CO/N=C(\C(=O)N[C@@H]1C(=O)N2C(C(=O)O)=C(CSc3nnnn3CC(=O)O)CS[C@H]12)c1coc(N)n1 [Testverbindung 2] | 0.5 (≈ 0.927 µM) | 0.1 (≈ 0.185 µM) | – | 0.63 | 55 | –
4 | CO/N=C(\C(=O)N[C@@H]1C(=O)N2C(C(=O)O)=C(CSc3nnnn3CCN(C)C)CS[C@H]12)c1coc(N)n1.Cl.Cl [Testverbindung 3, 3-[1-(2-Dimethylaminoäthyl)-1H-tetrazol-5-ylthiomethyl]-7ß-[2-(2-amino-4-oxazolyl)-2-Z-methoxyiminoacetylamino]-3-cephem-4-carbonsäure-dihydrochlorid] | – | – | – | – | – | ED50 Escherichia coli 205 (Escherichia coli 205 [1]; [5]): >30 mg/kg; ED50 Staphylococcus aureus 10 B [2, 6]: >30 mg/kg; MIC Streptococcus pyogenes Aronson [3, 7]: 0,05 µg/ml; MIC Escherichia coli 205 (Escherichia coli 205 [4]; agar dilution, DST Agar): 0,2 µg/ml; MIC Proteus rettgeri 856 (Proteus rettgeri 856; agar dilution, DST Agar): 0,01 µg/ml
5 | CO/N=C(\C(=O)N[C@@H]1C(=O)N2C(C(=O)O)=C(CSc3nnnn3CCN(C)C)CS[C@H]12)c1coc(N)n1 [Testverbindung 3] | 0.1 (≈ 0.181 µM) | 0.02 (≈ 0.0362 µM) | 0.02 (≈ 0.0362 µM) | 1.7 | 28 | –
6 | CO/N=C(/C(=O)N[C@@H]1C(=O)N2C(C(=O)O)=C(CSc3nnnn3CCN(C)C)CS[C@H]12)c1coc(N)n1 [Testverbindung 4] | 8 (≈ 14.5 µM) | 0.05 (≈ 0.0905 µM) | 2 (≈ 3.62 µM) | – | – | –
7 | CO/N=C(\C(=O)N[C@@H]1C(=O)N2C(C(=O)[O-])=C(C[n+]3ccc(C(N)=O)cc3)CS[C@H]12)c1coc(N)n1 [Testverbindung 5, 3-(4-Carbamoylpyridiniomethyl)-7β-[2-(2-amino-4-oxazolyl)-2-Z-methoxyiminoacetylamino]-3-cephem-4-carboxylat] | – | 0.02 (≈ 0.0399 µM) | – | – | – | ED50 Escherichia coli 205 (Escherichia coli 205 [1]; s.c., systemic infection, female SPF MF2 mice, listed as 8): >30 mg/kg; ED50 Staphylococcus aureus 10 B ([2]; systemic infection, female SPF MF2 mice, listed as 8): >30 mg/kg; MIC Escherichia coli 205 (Escherichia coli 205 [4]; [10]): 4 µg/mL (≈ 7.98 µM); MIC Proteus rettgeri 856 (Proteus rettgeri 856; [10]): 1 µg/mL (≈ 1.99 µM)
8 | CO/N=C(\C(=O)N[C@@H]1C(=O)N2C(C(=O)[O-])=C(C[n+]3ccc(C(N)=O)cc3)CS[C@H]12)c1coc(N)n1 [Testverbindung 5] | – | – | – | – | – | ED50 Escherichia coli 205 (Escherichia coli 205 [1]; [5]): 2,4 mg/kg; ED50 Staphylococcus aureus 10 B [2, 6]: 5,5 mg/kg; MIC Escherichia coli 205 (Escherichia coli 205 [4]; agar dilution, DST Agar): 0,2 µg/ml; MIC Proteus rettgeri 856 (Proteus rettgeri 856; agar dilution, DST Agar): 0,02 µg/ml
9 | CC(=O)OCC1=C(C(=O)O)N2C(=O)[C@@H](NC(=O)/C(=N\O)c3coc(N)n3)[C@H]2SC1 [Testverbindung 6] | 0.1 (≈ 0.235 µM) | – | 0.02 (≈ 0.047 µM) | 1 | 1.35 | –
10 | CON=C(C(=O)NC1C(=O)N2C(C(=O)[O-])=C(C[n+]3cccc(Cl)c3)CSC12)c1coc(N)n1 (stereo not shown) [Testverbindung 16, 3-(3-Chlorpyridiniomethyl)-7ß-[2-(2-amino-4-oxazolyl)-2-Z-methoxyiminoacetylamino]-3-cephem-4-carboxylat] | – | – | – | – | – | ED50 (Escherichia coli 205 [1]): 14 mg/kg; ED50 [2]: 30 mg/kg; MIC [3]: 0.2 µg/mL (≈ 0.406 µM); MIC (Escherichia coli 205 [4]; Escherichia coli, 205, read-out: MIC Escherichia coli 205): 8 µg/mL (≈ 16.2 µM); MIC (Proteus rettgeri 856; Providencia rettgeri, 856, read-out: MIC Proteus rettgeri 856): 0.1 µg/mL (≈ 0.203 µM)

Second part, led by results:

Row | MIC (Escherichia coli 205 [4]; [8]) [µg/mL] | MIC [3, 7] [µg/mL] | MIC (Proteus rettgeri 856; [9]) [µg/mL] | SMILES | ED50 (Escherichia coli 205 [1]; [5]) [mg/kg] | ED50 [2, 6] [mg/kg] | other results
11 | 0.2 (≈ 0.377 µM) | 0.2 (≈ 0.377 µM) | 0.01 (≈ 0.0188 µM) | CC(C)(ON=C(C(=O)NC1C(=O)N2C(C(=O)[O-])=C(C[n+]3ccccc3)CSC12)c1coc(N)n1)C(=O)O (stereo not shown) [Testverbindung 9, 3-Pyridiniomethyl-7ß-[2-(2-amino-4-oxazolyl)-2-Z-(2-carboxy-prop-2-yloxyimino)-acetylamino]-3-cephem-4-carboxylat-natriumsalz] | 4.4 | > 30 | –
12 | 1 (≈ 1.88 µM) | 0.5 (≈ 0.942 µM) | 0.2 (≈ 0.377 µM) | CC(C)(O/N=C(\C(=O)N[C@@H]1C(=O)N2C(C(=O)[O-])=C(C[n+]3ccccc3)CS[C@H]12)c1coc(N)n1)C(=O)O [Testverbindung 9] | 5.6 | > 30 | –
13 | 0.5 (≈ 0.872 µM) | 0.2 (≈ 0.349 µM) | 0.5 (≈ 0.872 µM) | CC(C)(O/N=C(\C(=O)N[C@@H]1C(=O)N2C(C(=O)[O-])=C(C[n+]3ccc(C(N)=O)cc3)CS[C@H]12)c1coc(N)n1)C(=O)O [Testverbindung 10] | 1.6 | > 30 | –
14 | 4 (≈ 6.97 µM) | 0.02 (≈ 0.0349 µM) | 0.2 (≈ 0.349 µM) | CC(C)(ON=C(C(=O)NC1C(=O)N2C(C(=O)[O-])=C(C[n+]3ccc(C(N)=O)cc3)CSC12)c1coc(N)n1)C(=O)O (stereo not shown) [Testverbindung 10] | > 30 | > 30 | –
15 | 0.1 (≈ 0.228 µM) | 0.01 (≈ 0.0228 µM) | – | CO/N=C(\C(=O)N[C@@H]1C(=O)N2C(C(=O)O)=C(COC(C)=O)CS[C@H]12)c1coc(N)n1 [Testverbindung 13] | 1 | 5 | –
16 | 0.2 (≈ 0.544 µM) | 0.01 (≈ 0.0272 µM) | – | CO/N=C(\C(=O)N[C@@H]1C(=O)N2C(C(=O)O)=CCS[C@H]12)c1coc(N)n1 [Testverbindung 14] | 9 | 30 | –
17 | 0.5 (≈ 0.995 µM) | 0.02 (≈ 0.0398 µM) | – | CON=C(C(=O)NC1C(=O)N2C(C(=O)[O-])=C(C[n+]3ccc(C(=O)O)cc3)CSC12)c1coc(N)n1 (stereo not shown) [Testverbindung 17, 3-(4-Carboxylatpyridiniomethyl)-7ß-[2-(2-amino-4-oxazolyl)-2-Z-methoxyiminoacetylamino]-3-cephem-4-carboxylat-natriumsalz] | 2 | 5.5 | –
18 | 0.5 (≈ 0.995 µM) | 0.05 (≈ 0.0995 µM) | 0.02 (≈ 0.0398 µM) | CO/N=C(\C(=O)N[C@@H]1C(=O)N2C(C(=O)[O-])=C(C[n+]3ccc(C(=O)O)cc3)CS[C@H]12)c1coc(N)n1 [Testverbindung 17] | – | > 30 | –
